This is an account of results in patent publication US9242933B2 (AbbVie Deutschland GmbH & Co. KG, priority 2007, dated 2016).

A word on the EC50: it is the midpoint of the concentration-response curve.

The target of the test is T1, human mGlu2 receptor (Homo sapiens, UniProt Q14416).
T1 construct: expressed in transfected cells; host or cells: HEK293
T1 sequence (Q14416 19-872): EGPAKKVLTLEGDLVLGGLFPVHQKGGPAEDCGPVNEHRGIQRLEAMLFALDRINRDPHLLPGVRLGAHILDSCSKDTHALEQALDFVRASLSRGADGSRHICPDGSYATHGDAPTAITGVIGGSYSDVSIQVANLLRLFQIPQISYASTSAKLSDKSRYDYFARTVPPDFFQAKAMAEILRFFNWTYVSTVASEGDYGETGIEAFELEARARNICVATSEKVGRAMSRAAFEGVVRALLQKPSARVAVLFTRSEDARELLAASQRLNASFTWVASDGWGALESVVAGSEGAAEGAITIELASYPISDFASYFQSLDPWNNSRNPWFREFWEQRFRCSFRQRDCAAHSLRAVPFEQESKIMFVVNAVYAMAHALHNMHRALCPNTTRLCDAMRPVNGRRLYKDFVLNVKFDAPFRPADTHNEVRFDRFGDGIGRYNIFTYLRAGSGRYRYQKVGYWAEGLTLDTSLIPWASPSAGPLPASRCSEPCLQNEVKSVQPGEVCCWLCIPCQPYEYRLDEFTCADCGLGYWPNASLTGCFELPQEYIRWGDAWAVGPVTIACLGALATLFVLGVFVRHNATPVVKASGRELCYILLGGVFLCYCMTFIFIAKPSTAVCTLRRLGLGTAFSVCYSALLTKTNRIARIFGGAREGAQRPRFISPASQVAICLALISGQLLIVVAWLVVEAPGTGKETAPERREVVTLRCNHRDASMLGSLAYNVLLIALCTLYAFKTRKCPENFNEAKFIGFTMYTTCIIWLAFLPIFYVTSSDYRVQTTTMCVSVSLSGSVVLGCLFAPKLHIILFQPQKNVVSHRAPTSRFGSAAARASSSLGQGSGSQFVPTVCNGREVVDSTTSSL
Briefly: FLIPR intracellular Ca2+ assay, potentiation of glutamate response in HEK293 clone expressing mGlu2 receptor, rGLAST and Galpha16. The test is classed as cell-based. Conditions: 1 μM glutamate added ten minutes after test compound, HEK293 cells with human mGlu2, rGLAST, Galpha16, read-out: EC50 values of potentiation effect to glutamate. The text has this:
The compounds of the present invention can be tested e.g. by evaluating intracellular Ca^2+ concentrations in cells permanently expressing human mGlu receptor, the rat glutamate transporter rGLAST and the Galpha16 subunit of the G-protein complex under standard conditions in a fluorometric imaging plate reader (FLIPR, Molecular Devices, Union City, Calif. 94587, USA) by measuring the response of the cells to a test compound in the absence of presence of glutamate. The FLIPR assay is a common functional assay to monitor native or recombinant Galphaq-coupled receptors, and native or recombinant receptors normally linked to other G-protein signalling cascades, which are coupled to calcium through co-expression of an alpha subunit of a promiscuous or chimeric G-protein. In the assay the increase of intracellular calcium is measured through a calcium-dependent fluorescent dye (e.g. Fluo-4 AM) in the FLIPR instrument.
For the purpose of the present study, a cell line permanently expressing a human mGlu receptor, such as the mGlu2 receptor, the rat glutamate transporter rGLAST and the GalphaG16 may be generated by transfection as described in the examples. For selection of a suitable cell clone and also the subsequent measurements, the selected clone the cells will be plated on suitable multiwell plates in a suitable medium (e.g. DMEM Glutamax (GIBCO #21885-025)/10% dialyzed FCS). Cells may be selected by gentamycin treatment as described in the examples. Cells will then be loaded with a suitable Ca^2+ sensitive fluorescence dye, e.g. with 2 μM Fluo-4 AM (Molecular Probes, F14201). Cells will then be washed with a suitable buffer (e.g. HEPES) and the thus treated plates will be measured in a fluorometric imaging plate reader (e.g. FLIPR, Molecular Devices, Union City, Calif. 94587, USA).
The compounds of the present invention were tested in the above-described FLIPR assay using the selected cell clone. Increased intracellular calcium levels were quantified following addition of test compound (agonism), as well as following addition of a submaximal concentration of glutamate (potentiation).
For the determination of the effect of the test compound by itself (agonism) or by increasing the response to a submaximal concentration (e.g. 1 μM) of glutamate (potentiation), the resulting signal is determined by subtraction of the background fluorescence from the maximal fluorescent peak height of the respective response. In the FLIPR instrument the compound is given to the cell and its fluorescence response quantified by the FLIPR instrument (agonism). The concentration at which the compound exerts half its maximal effect is named the ‘effective concentration 50’ or ‘EC50’. The maximal effect induced by the test substance is normalized to the maximal effect exerted by 100 μM glutamate (set at 100%).
After addition of the test compound to the plate, a submaximal concentration of glutamate (e.g. 1 μM glutamate) will be added. A potentiator enhances the response of the receptor to glutamate. The response to glutamate in the presence of test compound is quantified. The concentration at which the test compound is able to exert half its maximal potentiation effect to glutamate is named the ‘EC50’. The maximal response to the submaximal concentration of glutamate (e.g. 1 micromolar glutamate) in the presence of test compound is normalized to the maximal effect exerted by 100 micromolar glutamate (set at 100%). Least squares curve fitting with a four-parameter equation is then applied to the resulting dose-response curve to determine the resulting EC5O values (Graph Pad Prism).
For the purpose of the present study, a cell line permanently expressing the human mGlu2 receptor, the rat glutamate transporter rGLAST and the alpha subunit of G16 was generated by transfection. […]
In the case of `CCN1Cc2cc(OCc3c[nH]nc3-c3cccc(C(F)(F)F)c3)ccc2C1=O` [Example 558, 2-Ethyl-5-[3-(3-trifluoromethyl-phenyl)-1H-pyrazol-4-ylmethoxy]-2,3-dihydro-isoindol-1-one], the half-maximal effective concentration (EC50) is less than 1 µM.
The same measure for `CC(C)(C)c1n[nH]cc1CNc1ccc(OC(F)(F)Cl)cc1` [Example 281, (3-tert-Butyl-1H-pyrazol-4-ylmethyl)-[4-(chloro-difluoro-methoxy)-phenyl]-amine]: 1 to 10 µM; for `O=C(c1ccc(OCc2c[nH]nc2-c2cccc(C(F)(F)F)c2)cc1)C1CCCC1` [Example 442, Cyclopentyl-{4-[3-(3-trifluoromethyl-phenyl)-1H-pyrazol-4-ylmethoxy]-phenyl}-methanone]: less than 1 µM.
Next, `CCCN1Cc2cc(NCc3c(C)noc3-c3ccccc3)ccc2C1=O` [Example 590, 5-[(3-Methyl-5-phenyl-isoxazol-4-ylmethyl)-amino]-2-propyl-2,3-dihydro-isoindol-1-one]: less than 1 µM; `CCCC(=O)c1ccc(NCc2ccnn2C)cc1` [Example 216, 1-{4-[(2-Methyl-2H-pyrazol-3-ylmethyl)-amino]-phenyl}-butan-1-one]: 1 to 10 µM.
Next, `CCCC(=O)c1ccc(NCc2c(C)nn(-c3ccccc3)c2C)cc1` [Example 56, 1-{4-[(3,5-Dimethyl-1-phenyl-1H-pyrazol-4-ylmethyl)amino]phenyl}butan-1-one]: 1 to 10 µM.
Consider `CCCC(=O)c1ccc(NCc2cccnc2)cc1` [Example 16, 1-{4-[(Pyridin-3-ylmethyl)amino]phenyl}butan-1-one], for which the concentration giving a half-maximal response (EC50) was 1 to 10 µM.
The same measure for `CCCC(=O)c1ccc(NCc2c[nH]nc2-c2cccc(C(F)(F)F)c2)cc1OC` [Example 434, 1-(2-Methoxy-4-{[3-(3-trifluoromethyl-phenyl)-1H-pyrazol-4-ylmethyl]-amino}-phenyl)-butan-1-one]: less than 1 µM; for `CCCC(=O)c1ccc(NCc2sc(C)nc2-c2ccccc2)cc1` [Example 233, 1-{4-[(2-Methyl-4-phenyl-thiazol-5-ylmethyl)-amino]-phenyl}-butan-1-one]: 1 to 10 µM.
Next, `CCC(CC)Oc1cccc(N(Cc2c[nH]nc2-c2ccc(C(F)(F)F)cc2)S(=O)(=O)CC(F)(F)F)c1` [Example 454, 2,2,2-Trifluoro-ethanesulfonic acid [3-(1-ethyl-propoxy)-phenyl]-[3-(4-trifluoromethyl-phenyl)-1H-pyrazol-4-ylmethyl]-amide]: 1 to 10 µM; `CCCC(=O)c1ccc(NCc2cnccc2-c2cccc(Br)c2)cc1` [Example 37, 1-(4-{[4-(3-Bromophenyl)pyridin-3-ylmethyl]amino}phenyl)butan-1-one]: 1 to 10 µM; `CCCC(=O)c1ccc(NCc2sc(Cl)nc2Cl)cc1` [Example 250, 1-{4-[(2,4-Dichloro-thiazol-5-ylmethyl)-amino]-phenyl}-butan-1-one]: 1 to 10 µM.
As to `O=C(c1ccc(NCc2c[nH]nc2-c2ccc(C(F)(F)F)cc2)cc1)C(F)(F)F` [Example 506, 2,2,2-Trifluoro-1-(4-{[3-(4-trifluoromethyl-phenyl)-1H-pyrazol-4-ylmethyl]-amino}-phenyl)-ethanone], the concentration giving a half-maximal response (EC50) fell in the range of 1 to 10 µM.
The same measure for `CCCC(=O)c1ccc(NCc2cnn(Cc3ccccc3)c2)cc1` [Example 220, 1-{4-[(1-Benzyl-1H-pyrazol-4-ylmethyl)-amino]-phenyl}-butan-1-one]: 1 to 10 µM; for `CN(C)C(=O)c1ccc(NCc2c[nH]nc2-c2cccc(C(F)(F)F)c2)cc1` [Example 433, N,N-Dimethyl-4-{[3-(3-trifluoromethyl-phenyl)-1H-pyrazol-4-ylmethyl]-amino}-benzamide]: 1 to 10 µM.
The same measure for `CCC(C)COc1cccc(N(Cc2c[nH]nc2-c2ccc(C(F)(F)F)cc2)S(=O)(=O)CC(F)(F)F)c1` (stereo not drawn) [Example 457, 2,2,2-Trifluoro-ethanesulfonic acid [3-(2-methyl-butoxy)-phenyl]-[3-(4-trifluoromethyl-phenyl)-1H-pyrazol-4-ylmethyl]-amide]: 1 to 10 µM.
The same measure for `O=C1c2ccc(OCc3c[nH]nc3-c3ccc(Cl)cc3)cc2CN1CCC(F)(F)F` [Example 539, 5-[3-(4-Chloro-phenyl)-1H-pyrazol-4-ylmethoxy]-2-(3,3,3-trifluoro-propyl)-2,3-dihydro-isoindol-1-one]: less than 1 µM; for `CC(=O)c1ccc(NCc2c[nH]nc2-c2ccc(Cl)cc2)c(C)c1O` [Example 440, 1-(4-{[3-(4-Chloro-phenyl)-1H-pyrazol-4-ylmethyl]-amino}-2-hydroxy-3-methyl-phenyl)-ethanone]: less than 1 µM.
In the case of `CCCC(=O)c1ccc(NCc2c[nH]nc2-c2cccc(F)c2)cc1` [Example 511, 1-(4-{[3-(3-Fluorophenyl)-1H-pyrazol-4-ylmethyl]-amino}-phenyl)-butan-1-one], the 50% effective concentration (EC50) is less than 1 µM.
Regarding `O=C1c2ccc(OCc3c[nH]nc3-c3ccccc3)cc2CN1CC(F)F` [Example 567, 2-(2,2-Difluoro-ethyl)-5-(3-phenyl-1H-pyrazol-4-ylmethoxy)-2,3-dihydro-isoindol-1-one], the EC50 was less than 1 µM.
Consider `CCCC(=O)c1ccc(OCc2c[nH]nc2-c2ccc(Cl)cc2)cc1` [Example 496, 1-{4-[3-(4-Chloro-phenyl)-1H-pyrazol-4-ylmethoxy]-phenyl}-butan-1-one], for which the EC50 was less than 1 µM.
For `O=C1c2ccc(OCc3c[nH]nc3-c3cccc(F)c3)cc2CN1CCC(F)(F)F` [Example 541, 5-[3-(3-Fluorophenyl)-1H-pyrazol-4-ylmethoxy]-2-(3,3,3-trifluoro-propyl)-2,3-dihydro-isoindol-1-one], the 50% effective concentration (EC50) is less than 1 µM.
In the case of `CCCN1Cc2cc(NCc3c[nH]nc3-c3cccc(Cl)c3)ccc2C1=O` [Example 577, 5-{[3-(3-Chloro-phenyl)-1H-pyrazol-4-ylmethyl]-amino}-2-propyl-2,3-dihydro-isoindol-1-one], the EC50 is less than 1 µM.
The same measure for `CCCC(=O)c1ccc(NCc2cn(-c3ccccc3)nc2-c2ccncc2)cc1` [Example 214, 1-{4-[(1-Phenyl-3-pyridin-4-yl-1H-pyrazol-4-ylmethyl)-amino]-phenyl}-butan-1-one]: 1 to 10 µM; for `CCCC(=O)c1cccc(N(C)Cc2c[nH]nc2-c2ccc(C(F)(F)F)cc2)c1` [Example 392, 1-(3-{Methyl-[3-(4-trifluoromethyl-phenyl)-1H-pyrazol-4-ylmethyl]-amino}-phenyl)-butan-1-one]: 1 to 10 µM; for `CCCC(=O)c1ccc(OCc2n[nH]cc2-c2ccc(CC)cc2)cc1` [Example 521, 1-{4-[4-(4-Ethyl-phenyl)-1H-pyrazol-3-ylmethoxy]-phenyl}-butan-1-one]: less than 1 µM.
Regarding `O=C1CCc2cc(NCc3c[nH]nc3-c3ccc(C(F)(F)F)cc3)ccc21` [Example 81, 5-{[3-(4-Trifluoromethylphenyl)-1H-pyrazol-4-ylmethyl]-amino}-indan-1-one], the concentration giving a half-maximal response (EC50) was in the range of 1 to 10 µM.
In the case of `CCCOc1ncccc1CNc1ccc(C(=O)CCC)cc1` [Example 311, 1-{4-[(2-Propoxy-pyridin-3-ylmethyl)-amino]-phenyl}-butan-1-one], the EC50 was in the range of 1 to 10 µM.
The same measure for `O=C1c2ccc(OCc3c[nH]nc3-c3ccc(C(F)(F)F)cc3)cc2CN1CCBr` [Example 564, 2-(2-Bromo-ethyl)-5-[3-(4-trifluoromethyl-phenyl)-1H-pyrazol-4-ylmethoxy]-2,3-dihydro-isoindol-1-one]: less than 1 µM; for `CCCC(=O)c1ccc(NCc2cnn(C)c2-c2ccc(C(F)(F)F)cc2)cc1` [Example 375, 1-(4-{[1-Methyl-5-(4-trifluoromethyl-phenyl)-1H-pyrazol-4-ylmethyl]-amino}-phenyl)-butan-1-one]: less than 1 µM.
